The numbers were not newly measured in patent publication US7335651B2, “Compositions incorporating(-)-hydroxycitric acid and related methods for promoting fat oxidation” (Interhealth Nutraceuticals Incorporated, priority 2001, dated 2008), which cites them from elsewhere.

Data set [1] deals with young obese women. Particulars: eight weeks.
Data set [2] deals with DNA.
For data set [3] the following is noted: acute toxicity tests.
Data set [4] concerns liver lipogenesis. Particulars: rats; acute oral dose 2.63 mmoles/kg (roughly 594 mg/kg) before a standardized synthetic meal; up to 8 hours after the meal.
The target in data set [5] is T1, ATP-citrate lyase (Homo sapiens, UniProt P53396).
T1 sequence (P53396 1-1101): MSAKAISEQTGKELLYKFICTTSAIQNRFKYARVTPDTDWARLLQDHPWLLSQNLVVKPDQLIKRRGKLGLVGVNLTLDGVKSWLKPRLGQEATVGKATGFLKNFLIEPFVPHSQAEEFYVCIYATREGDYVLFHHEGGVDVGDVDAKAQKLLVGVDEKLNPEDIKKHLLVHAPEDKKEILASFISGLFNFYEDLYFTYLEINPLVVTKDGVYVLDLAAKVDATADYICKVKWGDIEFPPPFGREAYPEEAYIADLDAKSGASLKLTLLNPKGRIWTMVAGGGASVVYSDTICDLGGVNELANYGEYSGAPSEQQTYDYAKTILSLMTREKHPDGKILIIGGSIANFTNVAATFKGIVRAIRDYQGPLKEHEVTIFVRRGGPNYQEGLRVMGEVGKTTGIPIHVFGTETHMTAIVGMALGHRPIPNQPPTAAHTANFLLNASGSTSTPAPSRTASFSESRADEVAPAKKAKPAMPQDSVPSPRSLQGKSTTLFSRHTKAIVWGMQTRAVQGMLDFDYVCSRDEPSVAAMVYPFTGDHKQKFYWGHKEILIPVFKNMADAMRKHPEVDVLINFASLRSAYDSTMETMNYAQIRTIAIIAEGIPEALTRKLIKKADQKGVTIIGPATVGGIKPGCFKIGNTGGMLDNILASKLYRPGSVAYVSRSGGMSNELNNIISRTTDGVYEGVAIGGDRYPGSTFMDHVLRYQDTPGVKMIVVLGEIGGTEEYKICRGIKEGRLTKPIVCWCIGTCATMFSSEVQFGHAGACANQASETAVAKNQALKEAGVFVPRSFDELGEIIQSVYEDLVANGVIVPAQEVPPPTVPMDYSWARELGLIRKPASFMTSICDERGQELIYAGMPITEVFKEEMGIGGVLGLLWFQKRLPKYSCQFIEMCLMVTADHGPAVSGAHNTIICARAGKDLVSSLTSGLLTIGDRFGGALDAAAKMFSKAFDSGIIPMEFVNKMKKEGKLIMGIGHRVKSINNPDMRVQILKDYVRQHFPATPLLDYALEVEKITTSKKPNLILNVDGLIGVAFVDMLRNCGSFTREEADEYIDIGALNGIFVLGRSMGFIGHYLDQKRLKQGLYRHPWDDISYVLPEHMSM

For data set [6], the system named is growing rats. Particulars: thirty days.

Read-outs that look alike come from different tables or passages of the source.

chromium picolinate: the “Body weight change with exercise” value in data set [1] (in combination with exercise, O-NBC at 400 micrograms chromium per day) is “no change in weight”. Also, in data set [1] (no exercise), the “Body weight change without exercise” value is given as “significant weight gain”. Moreover, the “DNA damage and mutagenicity” value in data set [2] is “damage DNA and be mutagenic”.

On to `O=C(O)CC(O)(C(=O)O)C(O)C(=O)O` (single isomer, unassigned; (-)) [HCA, (−)-hydroxycitric acid], for which the “Acute toxicity compared with citric acid” value in data set [3] is on record as “even safer than citric acid”. The “Decrease in liver lipogenesis” value in data set [4] was “roughly 70%”. For the same molecule, the “Mode of inhibition of ATP-citrate lyase” value in data set [5] is given as “competitive inhibitor”. For the same molecule, the “Decrease in body weight gain” value was “significant” in data set [6] (0.33 mmoles/kg twice daily), “significant” in data set [6] (2.63 mmoles/kg once daily) and “no significant reductions” in data set [6] (single daily administration).
